# Earlier results, collected in patent US9681659B2, “Agrochemical formulation comprising encapsulated pesticide” (BASF SE, priority 2011, dated 2017).
Compound,"solubilities in water (in water, examples for pesticide A) [mg/L]","solubility values (in water) (all data at 20° C., examples for aprotic, polar solvent B) [mg/mL]"
COc1cc(C)c(C(=O)c2c(OC)ccc(Br)c2C)c(OC)c1OC [metrafenon],0.5,
CC1=CC(=O)CC(C)(C)C1 [isoporone],,15
